Test results taken from paper PMC9917184, “Synthesis and Biological Evaluation of Potential Oncoimmunomodulator Agents” (International Journal of Molecular Sciences, 2023).
Where two headings read alike, the source gives them in different places.

What was measured:
c-Myc = experiment: Total c-Myc relative quantification by flow cytometry in cancer cell lines; type: cell-based, human; details: 24 h
Experimental: (§1) The effect of these triazole derivates on c-Myc and PD-L1 was measured in three different cancer cell lines (HT-29, MCF-7, A-549) by flow cytometry. Thus, cells were incubated for 24 h with the corresponding compound at a concentration of 100 μM. Dimethyl sulfoxide (DMSO)-treated cells were used as the negative control, and a PD-L1 inhibitor, BMS-8 [29, 31], was used as a reference control. After permeabilization and fixation, cells were treated with anti-PD-L1 conjugated to AlexaFluor®647 and anti-c-Myc conjugated to fluorescein to determine the amount of both targets related to the negative control. Table 1 show the results in terms of the percentage of the detected target in relation to the negative control. This assay was carried out on cancer cell lines HT-29, MCF-7, and A-549.
(§2) To study the effect of the compounds on every biological target in cancer cell lines, the compounds were used at a 100 µM dose.
(§3) For the assay, 10^5 cells per well were incubated for 24 h with the corresponding dose of the tested compound in a total volume of 500 μL of their growth media.
(§4) To detect total PD-L1 and c-Myc, after the cell treatments, they were collected and fixed with 4% in PBS paraformaldehyde. After fixation, a treatment with 0,5% in PBS Triton™ X-100 was performed, and finally, cells were stained with FITC Mouse monoclonal Anti-c-Myc (ab223913) and Alexa Fluor® 647 Rabbit monoclonal Anti-PD-L1 (ab215251).

PD-L1 = PD-L1 (Homo sapiens, UniProt Q9NZQ7); experiment: Total PD-L1 relative quantification by flow cytometry in cancer cell lines; type: cell-based; design: Alexa Fluor® 647 Rabbit monoclonal Anti-PD-L1 (ab215251); endogenous in cells; host or cells: HT-29; details: 24 h, total PD-L1 relative to negative control (DMSO)
Chain of PD-L1 (Q9NZQ7 19-290): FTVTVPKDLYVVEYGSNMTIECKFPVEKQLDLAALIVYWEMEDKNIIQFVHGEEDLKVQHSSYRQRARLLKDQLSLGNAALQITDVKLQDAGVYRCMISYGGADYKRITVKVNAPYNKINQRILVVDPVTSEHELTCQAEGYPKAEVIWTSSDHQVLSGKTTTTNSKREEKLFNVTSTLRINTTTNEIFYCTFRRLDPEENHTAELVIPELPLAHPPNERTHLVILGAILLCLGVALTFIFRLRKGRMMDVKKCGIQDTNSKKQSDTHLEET
Experimental: as §1, §2, §3, §4

MCF-7 = MCF-7 cell viability in co-culture with Jurkat T cells (flow cytometry count); type: cell-based, human; details: Homo sapiens, MCF7, MCF-7/Jurkat T co-culture, IFN-γ stimulated, 24 h, read-out: percentage of living MCF-7 cells relative to non-treated co-cultures
Experimental: (§5) The effect of the synthesized compounds on tumor cell proliferation in the presence of PD-1-expressing Jurkat T cells was also studied. This assay was carried out, as in the previous experiments, in the HT29, MCF7, and A549 cell lines (see Table 4). Interferon γ-stimulated cancer cells were treated for 24 h with the compounds at 100 μM in presence of Jurkat T cells. Then, cells were counted using flow cytometry. The percentage of living cells relative to non-treated co-cultures (control) was established for both cancer and immune cells in every co-culture.
(§6) To study the effect of the compounds on the cell viability in co-culture with Jurkat T cells or THP-1 cells, 10^5 or 2 × 10^5 of the corresponding cancer cells line per well were seeded and incubated for 24 h, then the medium was changed by one cell culture medium supplemented with IFN-γ (10 ng/mL; human, Invitrogen®) and containing 5 × 10^5 or 10^5 Jurkat T cells or THP-1, respectively, per well and 100 µM of the corresponding compound or DMSO for the […] control. After 24 h/48 h of incubation, supernatants were collected to determine Jurkat T or THP-1 living cells, and on the other hand, corresponding cancer cells were collected with trypsin. Both types of suspension cells were fixed with 4% in PBS paraformaldehyde and counted by flow cytometry.

A-549 = A-549 cell viability in co-culture with Jurkat T cells (flow cytometry count); type: cell-based, human; details: 24 h; for viability at 100 µM: Homo sapiens, A549, A-549/Jurkat T co-culture, IFN-γ stimulated, read-out: percentage of living A-549 cells relative to non-treated co-cultures; for inhibition rate of A-549 cell viability: co-cultured with Jurkat T cells, 100 μM
Experimental: as §5, §6

Jurkat T cells = experiment: Jurkat T cell viability in co-culture with cancer cells (flow cytometry count); type: cell-based; details: Homo sapiens, 24 h, read-out: percentage of living Jurkat cells relative to non-treated co-cultures
Experimental: as §5, §6

membrane PD-L1 = target: T1, membrane PD-L1 (Homo sapiens, UniProt Q9NZQ7); experiment: Membrane PD-L1 relative quantification by flow cytometry in cancer cells co-cultured with Jurkat T cells; type: cell-based; details: Jurkat, 24 h; for remaining activity at 100 µM: relative to non-treated co-cultures, read-out: % PDL1 (membrane); for inhibition at 100 µM: HT-29 co-cultured with Jurkat T cells, read-out: membrane PD-L1 inhibition rate
T1 construct: Alexa Fluor® 647 Rabbit monoclonal Anti-PD-L1 (ab215251); endogenous in cells; host or cells: HT-29, MCF-7, A-549 (A17: MCF-7 only; A14: IFN-gamma-stimulated cancer cells co-cultured with Jurkat T cells)
T1 sequence (Q9NZQ7 19-290): as above
Experimental: (§7) We determined by flow cytometry the effect of these compounds on the expression of membrane PD-L1 in cancer cells when they were co-cultured with immune cells. Thus, interferon γ-stimulated cancer cells were treated for 24 h with the compounds at 100 μM in presence of Jurkat T cells. Then, cells were fixed and treated with anti-PD-L1 conjugated to AlexaFluor®647. We took advantage of the versatility of flow cytometry to simultaneously measure the expression of membrane VEGFR-2 by using anti-VEGFR-2 conjugated to fluorescein.
(§8) To study the effect of the compounds on every biological target in co-cultured cancer cell lines, the compounds were incubated for 24h as described before.
(§9) To detect membrane PD-L1 and VEGFR-2, after the cell treatments, they were collected, fixed with 4% in PBS paraformaldehyde, and stained with FITC Mouse monoclonal Anti-Human VEGFR-2 (ab184903) and Alexa Fluor® 647 Rabbit monoclonal Anti-PD-L1 (ab215251).

HT-29 = HT-29 cell viability in co-culture with Jurkat T cells (flow cytometry count); type: cell-based, human; details: 24 h; for viability at 100 µM: Homo sapiens, HT-29/Jurkat T co-culture, IFN-γ stimulated, read-out: percentage of living HT-29 cells relative to non-treated co-cultures
Experimental: as §5, §6

membrane VEGFR-2 = experiment: Membrane VEGFR-2 relative quantification by flow cytometry in cancer cells co-cultured with Jurkat T cells; type: cell-based, human; details: 100 μM, 24 h, relative to non-treated co-cultures
Experimental: as §7, §8, §9

[1] = A-549, 100 µM, relative to negative control (DMSO)
[2] = HT-29, 100 µM, detected target relative to negative control (DMSO)
[3] = MCF-7, 100 µM, relative to negative control (DMSO)
[4] = A549 co-cultured with Jurkat T cells
[5] = HT29 co-cultured with Jurkat T cells
[6] = MCF7 co-cultured with Jurkat T cells

Row | Compound | % c-Myc (c-Myc; [1]) [%] | % c-Myc (c-Myc; [2]) [%] | % c-Myc (c-Myc; [3]) [%] | remaining activity at 100 µM (PD-L1; A549, A-549, 100 µM) [%] | remaining activity at 100 µM (PD-L1; HT-29, 100 µM) [%] | remaining activity at 100 µM (PD-L1; MCF7, MCF-7, 100 µM) [%] | viability at 100 µM (MCF-7) [%] | viability at 100 µM (A-549) [%] | viability at 100 µM (Jurkat T cells; A-549/Jurkat T co-culture) [%] | viability at 100 µM (Jurkat T cells; HT-29/Jurkat T co-culture) [%] | viability at 100 µM (Jurkat T cells; MCF-7/Jurkat T co-culture) [%] | remaining activity at 100 µM (membrane PD-L1; [4]) [%] | remaining activity at 100 µM (membrane PD-L1; [5]) [%] | remaining activity at 100 µM (membrane PD-L1; [6]) [%] | viability at 100 µM (HT-29) [%] | %VEGFR2 (membrane) (membrane VEGFR-2; [4]) [%] | %VEGFR2 (membrane) (membrane VEGFR-2; [5]) [%] | %VEGFR2 (membrane) (membrane VEGFR-2; [6]) [%] | inhibition rate of A-549 cell viability (A-549) | inhibition at 100 µM (membrane PD-L1) [%] | also measured
1 | COc1ccc(C(OCCc2ccc(CCn3cc(-c4ccccc4)nn3)cc2)(c2ccccc2)c2ccc(OC)cc2)cc1 [Compound 1, 1-(4-(2-(bis(4-methoxyphenyl)(phenyl)methoxy)ethyl)phenethyl)-4-phenyl-1H-1,2,3-triazole] | 182 ± 27 | 135 ± 5 | 73 ± 1 | 63 ± 16 | 85 ± 3 | 90 ± 8 | 56 ± 6 | 127 ± 1 | 88 ± 18 | 108 ± 6 | 86 ± 13 | 96 ± 9 | 143 ± 48 | 109 ± 9 | 81 ± 12 | 79 ± 7 | 85 ± 0 | 76 ± 1 | – | – | –
2 | OCCc1ccc(CCn2cc(-c3ccccc3)nn2)cc1 [Compound 2, 2-(4-(2-(4-phenyl-1H-1,2,3-triazol-1-yl)ethyl)phenyl)ethan-1-ol] | 79 ± 10 | 115 ± 8 | 122 ± 13 | 76 ± 2 | 82 ± 6 | 115 ± 7 | 80 ± 6 | 123 ± 25 | 89 ± 17 | 107 ± 4 | 87 ± 22 | 60 ± 6 | 124 ± 34 | 82 ± 6 | 79 ± 20 | 90 ± 10 | 101 ± 11 | 86 ± 2 | – | – | –
3 | OCCc1ccc(CCn2cc(-c3ccc(Br)cc3)nn2)cc1 [Compound 4, 2-(4-(2-(4-(4-bromophenyl)-1H-1,2,3-triazol-1-yl)ethyl)phenyl)ethan-1-ol] | 95 ± 2 | 108 ± 8 | 91 ± 8 | 55 ± 8 | 111 ± 8 | 237 ± 19 | 87 ± 6 | 79 ± 5 | 122 ± 11 | 145 ± 9 | 218 ± 69 | 80 ± 3 | 54 ± 3 | 89 ± 3 | 115 ± 14 | 99 ± 4 | 94 ± 3 | 121 ± 19 | around 30% | 40 to 50 | inhibition rate of HT-29 cell viability (HT-29; co-cultured with Jurkat T cells, 100 μM): not active
4 | OCCc1ccc(CCn2cc(-c3cccc(Br)c3)nn2)cc1 [Compound 6, 2-(4-(2-(4-(3-bromophenyl)-1H-1,2,3-triazol-1-yl)ethyl)phenyl)ethan-1-ol] | 84 ± 9 | 149 ± 12 | 81 ± 6 | 62 ± 4 | 104 ± 6 | 110 ± 4 | 65 ± 8 | 75 ± 3 | 119 ± 6 | 116 ± 7 | 119 ± 1 | 75 ± 1 | 63 ± 6 | 66 ± 11 | 104 ± 4 | 87 ± 7 | 98 ± 2 | 98 ± 6 | around 30% | 40 to 50 | –
5 | OCCc1ccc(CCn2cc(-c3ccccc3Br)nn2)cc1 [Compound 8, 2-(4-(2-(4-(2-bromophenyl)-1H-1,2,3-triazol-1-yl)ethyl)phenyl)ethan-1-ol] | 48 ± 7 | 88 ± 2 | 92 ± 6 | 44 ± 8 | 115 ± 5 | 81 ± 1 | 49 ± 10 | 72 ± 9 | 88 ± 34 | 95 ± 5 | 164 ± 9 | 84 ± 8 | 58 ± 6 | 46 ± 9 | 97 ± 10 | 104 ± 5 | 97 ± 4 | 108 ± 6 | around 30% | 40 to 50 | –
6 | COc1ccc(-c2cn(CCc3ccc(CCOC(c4ccccc4)(c4ccc(OC)cc4)c4ccc(OC)cc4)cc3)nn2)cc1 [Compound 9, 1-(4-(2-(bis(4-methoxyphenyl)(phenyl)methoxy)ethyl)phenethyl)-4-(4-methoxyphenyl)-1H-1,2,3-triazole] | 61 ± 3 | 71 ± 10 | 88 ± 4 | 92 ± 21 | 57 ± 8 | 89 ± 5 | 69 ± 9 | 106 ± 1 | 462 ± 99 | 56 ± 18 | 84 ± 17 | 82 ± 2 | 63 ± 11 | 40 ± 5 | 51 ± 17 | 92 ± 3 | 76 ± 13 | 76 ± 10 | no activity | 40 to 50 | c-Myc inhibition rate (c-Myc; A-549, 100 μM): 40%
